Experimental data reported in patent US20250025443A1, “COMPOUNDS AND METHODS FOR TREATING CORONA VIRUSES” (CLEAR CREEK BIO, INC., priority 2021, published 2025).
Where two headings read alike, the source gives them in different places.

Target: SARS-CoV-2 Papain-Like Protease (PLpro) (Severe acute respiratory syndrome coronavirus 2 (2019-nCoV) (SARS-CoV-2), UniProt P0DTD1)
Experiment: biochemical
Conditions: read-out: PLpro IC50
[1] = PLpro enzymatic fluorescence assay, class symbols
[2] = SARS-CoV-2 PLpro enzymatic fluorescence assay

Structure (SMILES) | IC50 [1] | IC50 [2]
Cc1ccc(OC[C@@H]2CCN2C)cc1C(=O)NC1(c2cc(C#N)cc3ncccc23)CC1 [Compound 738, (S)-N-(1-(7-cyanoquinolin-5-yl)cyclopropyl)-2-methyl-5-((1-methylazetidin-2-yl)methoxy)benzamide] | < 100 nM | 
Cc1ccc(OC[C@@H]2CCN2C)cc1C(=O)NC1(c2cc(OS(=O)(=O)C(F)(F)F)cc3ncccc23)CC1 [Compound 739, (S)-5-(1-(2-Methyl-5-((1-methylazetidin-2-yl)methoxy)benzamido)cyclopropyl)quinolin-7-yl trifluoromethanesulfonate] | < 100 nM | 
Cc1ccc(OC[C@@H]2CCN2C)cc1C(=O)NC1(c2cc(N3CCOCC3)cc3ncccc23)CC1 [Compound 740, (S)-2-Methyl-5-((1-methylazetidin-2-yl)methoxy)-N-(1-(7-morpholinoquinolin-5-yl)cyclopropyl)benzamide] | < 100 nM | 
CCCNc1cc(C2(NC(=O)c3cc(OC[C@@H]4CCN4C)ccc3C)CC2)c2cccnc2c1 [Compound 743, (S)-2-Methyl-5-((1-methylazetidin-2-yl)methoxy)-N-(1-(7-(propylamino)quinolin-5-yl)cyclopropyl)benzamide] |  | < 100 nM
CC(=O)Nc1cc(C2(NC(=O)c3cc(OC[C@@H]4CCN4C)ccc3C)CC2)c2cccnc2c1 [Compound 744, (S)-N-(1-(7-Acetamidoquinolin-5-yl)cyclopropyl)-2-methyl-5-((1-methylazetidin-2-yl)methoxy)benzamide] |  | < 100 nM
C=Cc1cc(C2(NC(=O)c3cc(OC[C@@H]4CCN4C)c(NC)cc3C)CC2)c2cccnc2c1 [Compound 745, (S)-2-Methyl-4-(methylamino)-5-((1-methylazetidin-2-yl)methoxy)-N-(1-(7-vinylquinolin-5-yl)cyclopropyl)benzamide] | < 100 nM | 
C=Cc1cc(C2(NC(=O)c3cc(OC[C@@H]4CCN4C)c(NC(C)=O)cc3C)CC2)c2cccnc2c1 [Compound 746, (S)-4-Acetamido-2-methyl-5-((1-methylazetidin-2-yl)methoxy)-N-(1-(7-vinylquinolin-5-yl)cyclopropyl)benzamide] | < 100 nM | 
Cc1ccc(OC[C@@H]2CCN2C)cc1C(=O)NC1(c2cc(NCc3ccccc3)cc3ncccc23)CC1 [Compound 747, (S)—N-(1-(7-(Benzylamino)quinolin-5-yl)cyclopropyl)-2-methyl-5-((1-methylazetidin-2-yl)methoxy)benzamide] | < 100 nM | 
C=Cc1cc(C2(NC(=O)c3cc(OCC45CCCN4CCC5)ccc3C)CC2)c2cccnc2c1 [Compound 748, 2-Methyl-5-((tetrahydro-1H-pyrrolizin-7a (5H)-yl)methoxy)-N-(1-(7-vinylquinolin-5-yl)cyclopropyl)benzamide] |  | < 100 nM
C=Cc1cc(C2(NC(=O)c3cc(OC45CCCN(CCC4)C5)ccc3C)CC2)c2cccnc2c1 [Compound 749, 5-(1-Azabicyclo[3.3.1]nonan-5-yloxy)-2-methyl-N-(1-(7-vinylquinolin-5-yl)cyclopropyl)benzamide] |  | < 100 nM
COc1cc(C2(NC(=O)c3cc(OC[C@@H]4CCN4C)c(O)cc3C)CC2)c2cccnc2c1 [Compound 750, (S)-4-Hydroxy-N-(1-(7-methoxyquinolin-5-yl)cyclopropyl)-2-methyl-5-((1-methylazetidin-2-yl)methoxy)benzamide] | < 100 nM | 
Cc1ccc(OC[C@@H]2CCN2C)cc1C(=O)NC1(c2cc(-c3ccc(CN[C@H]4CC[C@@H](O)C4)s3)cc3ncccc23)CC1 [Compound 751, N-(1-(7-(5-((((1S,3R)-3-Hydroxycyclopentyl)amino)methyl)thiophen-2-yl)quinolin-5-yl)cyclopropyl)-2-methyl-5-(((S)-1-methylazetidin-2-yl)methoxy)benzamide] | < 100 nM | 
Cc1ccc(OC[C@@H]2CCN2C)cc1C(=O)NC1(c2cc(-c3ccc(CNC4CCCC4)s3)cc3ncccc23)CC1 [Compound 752, (S)—N-(1-(7-(5-((Cyclopentylamino)methyl)thiophen-2-yl)quinolin-5-yl)cyclopropyl)-2-methyl-5-((1-methylazetidin-2-yl)methoxy)benzamide] | < 100 nM | 
Cc1ccc(OC[C@@H]2CCN2C)cc1C(=O)NC1(c2cc(-c3ccc(CO)s3)cc3ncccc23)CC1 [Compound 753, (S)-N-(1-(7-(5-(Hydroxymethyl)thiophen-2-yl)quinolin-5-yl)cyclopropyl)-2-methyl-5-((1-methylazetidin-2-yl)methoxy)benzamide] | < 100 nM | 
C=Cc1cc(C2(NC(=O)c3cc(OC[C@@H]4CCN4C)c(O)cc3C)CC2)c2cccnc2c1 [Compound 755, (S)-4-Hydroxy-2-methyl-5-((1-methylazetidin-2-yl)methoxy)-N-(1-(7-vinylquinolin-5-yl)cyclopropyl)benzamide] | < 100 nM | 
Cc1ccc(OC[C@@H]2CCN2C)cc1C(=O)NC1(c2cc(-c3ccc(CN(C)C)s3)cc3ncccc23)CC1 [Compound 756, (S)—N-(1-(7-(5-((Dimethylamino)methyl)thiophen-2-yl)quinolin-5-yl)cyclopropyl)-2-methyl-5-((1-methylazetidin-2-yl)methoxy)benzamide] | < 100 nM | 
C=Cc1cc(C2(NC(=O)c3cc(O[C@H](C)[C@@H]4CCN4C)ccc3C)CC2)c2cccnc2c1 [Compound 758, 2-Methyl-5-((R)-1-((S)-1-methylazetidin-2-yl)ethoxy)-N-(1-(7-vinylquinolin-5-yl)cyclopropyl)benzamide] | < 100 nM | 
Cc1ccc(OC[C@@H]2CCN2C)cc1C(=O)NC1(c2cc(NCC(F)(F)F)cc3ncccc23)CC1 [Compound 759, (S)-2-Methyl-5-((1-methylazetidin-2-yl)methoxy)-N-(1-(7-((2,2,2-trifluoroethyl)amino)quinolin-5-yl)cyclopropyl)benzamide] | < 100 nM | 
C=Cc1cc(C2(NC(=O)c3cc(OC[C@@H]4CCN4C)c(NS(C)(=O)=O)cc3C)CC2)c2cccnc2c1 [Compound 760, (S)-2-Methyl-5-((1-methylazetidin-2-yl)methoxy)-4-(methylsulfonamido)-N-(1-(7-vinylquinolin-5-yl)cyclopropyl)benzamide] | < 100 nM | 
COc1cc(C2(NC(=O)c3cc(OC[C@@H]4CCN4C)ccc3C)CC2)c2ncccc2c1 [Compound 761, (S)-N-(1-(6-Methoxyquinolin-8-yl)cyclopropyl)-2-methyl-5-((1-methylazetidin-2-yl)methoxy)benzamide] | 100 to 1000 nM | 
Cc1ccc(OC[C@@H]2CCN2C)cc1C(=O)NC1(c2cc(-c3ccc(C(C)O)s3)cc3ncccc23)CC1 (stereo partly drawn) [Compound 762, N-(1-(7-(5-(1-Hydroxyethyl)thiophen-2-yl)quinolin-5-yl)cyclopropyl)-2-methyl-5-(((S)-1-methylazetidin-2-yl)methoxy)benzamide] | < 100 nM | 
CNc1cc(C2(NC(=O)c3cc(OC[C@@H]4CCN4C)ccc3C)CC2)c2cccnc2c1 [Compound 763, (S)-2-Methyl-N-(1-(7-(methylamino)quinolin-5-yl)cyclopropyl)-5-((1-methylazetidin-2-yl)methoxy)benzamide] | < 100 nM | 
Cc1ncc(-c2cc(C3(NC(=O)c4cc(OC[C@@H]5CCN5C)ccc4C)CC3)c3cccnc3c2)s1 [Compound 764, (S)-2-Methyl-5-((1-methylazetidin-2-yl)methoxy)-N-(1-(7-(2-methylthiazol-5-yl)quinolin-5-yl)cyclopropyl)benzamide] | < 100 nM | 
